Assay results published in PubChem BioAssay (NCI).
“And” between values parts separate entries of the source, which are not always exact repeats. Equal values may be shown once.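 96-well plates; 48 h exposure; 5 concentrations. Endpoints by linear interpolation between flanking doses. Not reached: highest tested concentration assigned. GI50 = concentration required for 50% inhibition of growth. TGI is the concentration that stops growth completely.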

Tests used:
Assay in all cases: NCI anticancer screen, dose series, 48 h
CAKI-1 renal = test system: CAKI-1 renal
EKVX NSCLC = test system: EKVX NSCLC
HCT-116 colon = test system: HCT-116 colon
NCI-H460 lung = test system: NCI-H460 lung
OVCAR-4 ovarian = test system: OVCAR-4 ovarian
PC-3 prostate = test system: PC-3 prostate
RXF 393 renal = test system: RXF 393 renal
SF-295 CNS = test system: SF-295 CNS
SNB-19 CNS = test system: SNB-19 CNS
SR leukemia = test system: SR leukemia

Row | Compound | TGI (CAKI-1 renal) [µM] | TGI (EKVX NSCLC) | TGI (HCT-116 colon) | TGI (NCI-H460 lung) | TGI (OVCAR-4 ovarian) | TGI (PC-3 prostate) | TGI (RXF 393 renal) [µM] | TGI (SF-295 CNS) [µM] | TGI (SNB-19 CNS) | TGI (SR leukemia) | GI50 (CAKI-1 renal) [µM] | GI50 (EKVX NSCLC) [µM] | GI50 (HCT-116 colon) [µM] | GI50 (NCI-H460 lung) [µM] | GI50 (OVCAR-4 ovarian) [µM] | GI50 (PC-3 prostate) [µM] | GI50 (RXF 393 renal) [µM] | GI50 (SF-295 CNS) [µM] | GI50 (SNB-19 CNS) [µM] | GI50 (SR leukemia) [µM]
1 | NC1=C(Cl)C(=O)c2ccccc2C1=O | 34.1 | 28.4 µM | 11.6 µM | 11 µM | 15.9 µM | 6 µM | 18.8 | 18.1 | 24.2 µM | 32.9 µM | – | – | – | – | – | – | – | – | – | –
2 | O=C(/C=C\c1ccc2ccccc2n1)c1cc(Cl)ccc1O | 21.5 | 87.5 µM | 11.3 µM | 42.6 µM | 24.6 µM | 38.2 µM | 6.36 | 44.2 | 24.5 µM | 8.11 µM | 5.49 | 13.7 | 3.38 | 16 | 5.25 | 6.47 | 2.3 | 10.3 | 10.1 | 2.48
3 | CCC(=O)c1ccc2c(c1)N(CCCN1CCN(CCO)CC1)c1ccccc1S2 | 27.5 | 28.1 µM | 22.9 µM | 33.5 µM | 25.6 µM | 25.2 µM | 26.2 | 25.9 | 36.1 µM | 28.7 µM | 13.4 | 13.1 | 10.5 | 17.6 | 12.9 | 11.5 | 12.2 | 12.2 | 18.5 | 11.7
4 | O=C(NC1(C(=O)O)CC1c1ccccc1)c1ccccc1 (stereo not drawn) | > 100 | > 100 µM | > 100 µM | > 100 µM | > 100 µM | > 100 µM | > 100 | > 100 | > 100 µM | > 100 µM | – | – | – | – | – | – | – | – | – | –
5 | Cc1cc2nc3c4cccc(O)c4n(CCN(C)C)c3nc2cc1C | 3.89 | 17.7 µM | 7.97 µM | 6.13 µM | 11.9 µM | 12.8 µM | 8.98 | 14 | 26.3 µM | 7.03 µM | 1.35 | 2.89 | 1.49 | 0.818 | 2.89 | 1.88 | 2.48 | 3.58 | 2.62 | 0.767
6 | CO/C(=N\N=C\c1cccc(C(F)(F)F)c1)c1ccncc1 | 9.48 | 77.3 µM | > 100 µM | 48.8 µM | > 100 µM | > 100 µM | 33.2 | – | 54.6 µM | 46.3 µM | – | – | – | – | – | – | – | 7.59 | 14.2 | 3.33
7 | CN(C)S(=O)(=O)c1ccc(Nc2ccc(O)c3c2C(=O)c2c([N+](=O)[O-])ccc(O)c2C3=O)cc1 | > 100 | > 100 µM | > 100 µM | > 100 µM | > 100 µM | > 100 µM | > 100 | > 100 | > 100 µM | > 100 µM | – | – | – | – | – | – | – | – | – | –
8 | Cc1ccc(C[P+](c2ccccc2)(c2ccccc2)c2ccccc2)cc1 | 17.3 | > 58.6 µM | 5.21 µM | 6.99 µM | > 100 µM | > 100 µM | 20.3 | 8.11 | > 39.5 µM | – | 0.486 | 0.369 | 0.382 | 0.76 | 0.768 | 0.997 | 3.24 | 0.99 | 2.18 | 1.04
9 | Oc1cc(Cl)ccc1Cc1ccc(Cl)cc1O | 43 | 36 µM | 17.1 µM | 19.4 µM | 34.8 µM | 83 µM | 28.4 | 24.6 | 45.1 µM | > 100 µM | 18.2 | 5.56 | 4.95 | 7 | 6.6 | 6.23 | 12.8 | 6.34 | 14.3 | 10.5
10 | COc1cc(-c2n/c(=C\c3c(O)[nH]c4ccccc34)cc3c2=Nc2ccccc2-3)cc(OC)c1OC | > 100 | > 100 µM | 2.44 µM | 1.76 µM | > 100 µM | > 100 µM | 5.34 | > 38.4 | > 100 µM | > 29.1 µM | – | > 24.9 | 0.392 | 0.334 | 0.506 | 2.19 | 0.436 | 0.666 | 2.68 | 0.692
11 | Cc1cc(NC(=O)NC(=O)c2ccccc2NC(=O)CN)ccc1Oc1ncc(Br)cn1 | 2.61 | 39.1 µM and 49.2 µM | 26.1 µM and > 100 µM | 44.5 µM and 11.8 µM | 45.4 µM and > 100 µM | 18.8 µM and > 100 µM | – | – | 26.3 µM and 16.4 µM | 55.8 µM and > 100 µM | – | – | 0.43 | 0.405 | 17 | 0.0816 | < 0.01 | < 0.01 | 0.336 | 0.0302
12 | N/C(=N\c1nc2ccccc2s1)NC(=O)Nc1cccc2ccccc12 | – | > 100 µM | – | – | – | > 100 µM | 0.898 | 1.83 | > 81.2 µM | > 100 µM | – | 0.462 | – | – | – | 0.318 | 0.2 | 0.173 | 0.574 | 0.0591
13 | N#C[C@H]1Nc2ccccc2[C@@H](O)C1O (stereo partly drawn) | > 100 | > 100 µM | > 100 µM | > 100 µM | > 100 µM | > 100 µM | > 100 | > 100 | – | > 100 µM | – | – | – | – | – | – | – | – | – | –
14 | COC(=O)[C@@H]1CCCN1C(=O)[C@H]1CCCN1C(=O)[C@@H](Cc1c[nH]c2ccccc12)NC(=S)Nc1cc(C(F)(F)F)cc(C(F)(F)F)c1 | 8.99 | – | 4.14 µM | 4.26 µM | 7.55 µM | 3.98 µM | 7.08 | 5.71 | 14.4 µM | 6.3 µM | 2.75 | – | 1.96 | 2.01 | 2.29 | 1.75 | 2.18 | 2.27 | 3.78 | 2.48
15 | CN1C(=O)C(c2c[nH]c3ccccc23)=C(c2c(-c3c[nH]c4ccccc34)[nH]c3ccccc23)C1=O | 4.63 | – | 11.2 µM | 15.8 µM | > 100 µM | 17.3 µM | 6.07 | 4.27 | 18.8 µM | 9.68 µM | 1.48 | – | 3.68 | 3.31 | 15.5 | 3.11 | 1.64 | 1.93 | 3.95 | 5.19
